Laboratory results as given in ChEMBL document CHEMBL1136927, “Nonsteroidal selective androgen receptor modulators (SARMs): dissociating the anabolic and androgenic activities of the androgen receptor for therapeutic benefit” (J Med Chem, 2009).

What was measured:
Rattus norvegicus [1] = species: Rattus norvegicus; assay: Myotropic activity in rat assessed as ventral prostate weight by Hershberger assay relative to intact tissue; type: functional, Prostate gland
Rattus norvegicus [2] = species: Rattus norvegicus; assay: Myotropic activity in rat assessed as seminal vesicle weight by Hershberger assay relative to intact tissue; type: functional; details: for Emax: Rattus norvegicus, Seminal vesicle
[3] = Clearance in iv dosed rat; type: ADME, organism-based; details: in vivo
[4] = Volume of distribution at steady state in iv dosed rat; type: ADME, organism-based; details: in vivo, read-out: Vdss
[5] = Terminal half life in iv dosed rat; type: ADME, organism-based; details: in vivo, read-out: beta t1/2 (converted)
[6] = Oral bioavailability in rat at 10 mg/kg; type: ADME, organism-based; details: in vivo
Rattus norvegicus [7] = species: Rattus norvegicus; assay: Myotropic activity in rat assessed as levator ani muscle weight by Hershberger assay relative to intact tissue; type: functional
[8] = Oral bioavailability in dog; type: ADME, organism-based, Canis lupus familiaris; details: in vivo
Rattus norvegicus [9] = assay: Myoanabolic activity in castrated rat assessed as restored soleus muscle strength at 10 mg/kg; type: functional
Rattus norvegicus [10] = species: Rattus norvegicus; assay: Osteoanabolic effect in rat assessed as reduction in osteocalcin level relative to basal level; type: functional; set-up: scale not given: the % may be the effect or the level left
Rattus norvegicus [11] = assay: Myotropic activity in rat assessed as ventral prostate weight at 3 mg/kg administered in 12 week atrophy followed by 8 weeks treatment schedule by Hershberger assay; type: functional, Prostate gland
Rattus norvegicus [12] = assay: Myoanabolic activity in castrated rat assessed as restored soleus muscle strength at 3 mg/kg; type: functional
Rattus norvegicus [13] = species: Rattus norvegicus; assay: Suppression of hyphalamic-pituitary-gonadal axis in rat; type: functional
Rattus norvegicus [14] = species: Rattus norvegicus; assay: Myotropic activity in rat assessed as levator ani muscle weight at 10 mg/day by Hershberger assay relative to intact tissue; type: functional
Rattus norvegicus [15] = assay: Myotropic activity in rat assessed as ventral prostate weight at 10 mg/kg by Hershberger assay; type: functional; details: Prostate gland
Rattus norvegicus [16] = assay: Myotropic activity in rat assessed as ventral prostate weight by modified Hershberger assay at 10 mg/kg; type: functional; details: Prostate gland
Rattus norvegicus [17] = assay: Suppression of hyphalamic-pituitary-gonadal axis in rat assessed as reduction in follicle-stimulating hormone level at 30 mg/kg; type: functional
Rattus norvegicus [18] = assay: Myotropic activity in rat assessed as ventral prostate weight at 100 mg/kg by Hershberger assay; type: functional; details: Prostate gland
Rattus norvegicus [19] = species: Rattus norvegicus; assay: Myotropic activity in rat assessed as levator ani muscle weight at 3 mg/day by modified Hershberger assay relative to intact tissue; type: functional
Rattus norvegicus [20] = assay: Myotropic activity in rat assessed as ventral prostate weight by modified Hershberger assay at 3 mg/kg; type: functional; details: Prostate gland
Rattus norvegicus [21] = assay: Myotropic activity in rat assessed as ventral prostate weight at 30 mg/kg by Hershberger assay; type: functional; details: Prostate gland
Rattus norvegicus [22] = species: Rattus norvegicus; assay: Myotropic activity in intact rat assessed as reduction in ventral prostate weight by Hershberger assay; type: functional, Prostate gland; set-up: scale not given: the % may be the effect or the level left
Rattus norvegicus [23] = assay: Suppression of hyphalamic-pituitary-gonadal axis in rat at 3 mg/kg; type: functional
Rattus norvegicus [24] = species: Rattus norvegicus; assay: Restoration of lean body mass in intact rat; type: functional
Androgen receptor = target: T1, Androgen receptor (Homo sapiens, UniProt P10275)
T1 sequence (P10275 whole entry): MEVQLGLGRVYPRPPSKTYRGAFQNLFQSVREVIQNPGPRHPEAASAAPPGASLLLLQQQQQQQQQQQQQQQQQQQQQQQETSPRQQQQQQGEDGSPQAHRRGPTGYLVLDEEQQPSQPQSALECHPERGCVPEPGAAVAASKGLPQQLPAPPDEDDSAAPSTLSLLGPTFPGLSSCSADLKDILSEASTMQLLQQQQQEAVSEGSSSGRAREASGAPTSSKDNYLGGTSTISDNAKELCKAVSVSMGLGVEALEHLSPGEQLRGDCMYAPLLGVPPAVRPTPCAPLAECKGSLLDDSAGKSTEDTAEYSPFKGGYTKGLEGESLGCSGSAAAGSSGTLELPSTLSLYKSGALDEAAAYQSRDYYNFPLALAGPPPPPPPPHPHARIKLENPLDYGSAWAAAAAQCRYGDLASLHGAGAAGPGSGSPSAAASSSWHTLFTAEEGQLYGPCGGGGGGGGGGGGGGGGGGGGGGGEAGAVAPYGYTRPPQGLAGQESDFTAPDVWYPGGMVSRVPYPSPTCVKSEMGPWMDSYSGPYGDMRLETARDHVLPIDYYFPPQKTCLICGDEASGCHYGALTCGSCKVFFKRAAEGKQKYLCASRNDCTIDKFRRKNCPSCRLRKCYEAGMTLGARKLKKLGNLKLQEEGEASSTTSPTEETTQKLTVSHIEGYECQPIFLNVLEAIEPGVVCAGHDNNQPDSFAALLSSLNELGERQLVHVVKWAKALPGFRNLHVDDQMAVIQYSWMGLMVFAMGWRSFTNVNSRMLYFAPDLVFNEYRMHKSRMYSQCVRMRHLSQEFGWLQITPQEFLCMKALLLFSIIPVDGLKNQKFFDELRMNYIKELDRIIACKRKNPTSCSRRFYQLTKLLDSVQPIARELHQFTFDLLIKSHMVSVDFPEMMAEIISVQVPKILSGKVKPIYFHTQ
Description: Agonist activity at androgen receptor

Rattus norvegicus [25] = species: Rattus norvegicus; assay: Myotropic activity in rat assessed as levator ani muscle weight at 30 mg/day by Hershberger assay relative to intact tissue; type: functional
Rattus norvegicus [26] = species: Rattus norvegicus; assay: Myotropic activity in rat assessed as ventral prostate weight at 0.3 mg/day by Hershberger assay; type: functional, Prostate gland
Rattus norvegicus [27] = species: Rattus norvegicus; assay: Reduction in testes weight in intact rat at 5 ug/day; type: functional, Testis; set-up: scale not given: the % may be the effect or the level left
[28] = Half life in human; type: ADME, organism-based; details: in vivo
[29] = Rattus norvegicus, Prostate gland
[30] = Rattus norvegicus, Levator ani muscle
[31] = Rattus norvegicus, Prostate gland, read-out: ED50
[32] = Rattus norvegicus, Levator ani muscle, read-out: ED50

C[C@](O)(COc1ccc(F)cc1)C(=O)Nc1ccc([N+](=O)[O-])c(C(F)(F)F)c1
ED50 (Rattus norvegicus [1]): 0.42 mg/day | Emax (Rattus norvegicus [1]; [29]): 14.9% | ED50 (Rattus norvegicus [2]): 0.38 mg/day | Emax (Rattus norvegicus [2]): 13.4% | clearance [3]: 3.6 mL/min/kg | Vd [4]: 1.5 L/kg | half-life [5]: 216 min | bioavailability [6]: 55% | ED50 (Rattus norvegicus [7]): 0.44 mg/day | Emax (Rattus norvegicus [7]; [30]): 75%

CC(=O)Nc1ccc(OC[C@](C)(O)C(=O)Nc2ccc([N+](=O)[O-])c(C(F)(F)F)c2)cc1
ED50 (Rattus norvegicus [1]): 0.43 mg/day | Emax (Rattus norvegicus [1]; [29]): 35.2% | ED50 (Rattus norvegicus [2]): 0.55 mg/day | Emax (Rattus norvegicus [2]): 28.5% | clearance [3]: 1 mL/min/kg | Vd [4]: 0.42 L/kg | half-life [5]: 156 min | bioavailability [6]: 100% | bioavailability [8]: 91% | ED50 (Rattus norvegicus [7]): 0.14 mg/day | Emax (Rattus norvegicus [7]; [30]): 101% | Activity (Rattus norvegicus [9]): 156 kN/m2 | Activity (Rattus norvegicus [10]): 70% | Activity (Rattus norvegicus [11]): 20% | Activity (Rattus norvegicus [12]): 120 kN/m2

Cc1c(N2C(=O)[C@@H]3[C@H](O)CCN3C2=O)ccc(C#N)c1Cl
Emax (Rattus norvegicus [1]; [29]): 105% | ED50 (Rattus norvegicus [1]; [31]): 0.14 mg/kg | Emax (Rattus norvegicus [7]; [30]): 125% | ED50 (Rattus norvegicus [7]; [32]): 0.009 mg/kg | ED50 (Rattus norvegicus [13]): 0.008 mg/kg

CC[C@H]1[C@@H]2[C@@H](O)CCN2C(=O)N1c1ccc(C#N)c(Cl)c1C
Emax (Rattus norvegicus [1]; [29]): 65% | ED50 (Rattus norvegicus [1]; [31]): 4.6 mg/kg | Emax (Rattus norvegicus [7]; [30]): 120% | ED50 (Rattus norvegicus [7]; [32]): 0.09 mg/kg

Cc1c(N2C(=O)[C@@H]3[C@H](O)CCN3S2(=O)=O)ccc(C#N)c1Cl
Emax (Rattus norvegicus [14]): 68% | Emax at 10 mg/kg (Rattus norvegicus [15]): 8%

C[C@@]1(C(=O)Nc2ccc(C#N)c(C(F)(F)F)c2)CC(C(F)(F)F)=NN1
Emax at 10 mg/kg (Rattus norvegicus [16]): 26% | Emax at 30 mg/kg (Rattus norvegicus [17]): 40% | ED50 (Rattus norvegicus [7]; [32]): 3.8 mg/kg | Emax (Rattus norvegicus [14]): 100%

CC[C@@H]1COc2c(ccc3[nH]c(=O)cc(C(F)(F)F)c23)N1CC(F)(F)F
ED50 (Rattus norvegicus [7]): 70 mg/day | Emax (Rattus norvegicus [14]): 100% | Emax at 100 mg/kg (Rattus norvegicus [18]): 80%

C[C@@]12CC(C(F)(F)F)=NN1[S+]([O-])N(c1ccc(C#N)c(C(F)(F)F)c1)C2=O (some centres not stated)
Emax (Rattus norvegicus [19]): 117% | Emax at 3 mg/kg (Rattus norvegicus [20]): 58%

N#Cc1ccc(N2[C@@H]3CC[C@H]2C[C@@H](O)C3)c2ccccc12
Emax (Rattus norvegicus [7]; [30]): 66% | ED50 (Rattus norvegicus [7]; [32]): 17.3 mg/kg | ED50 (Rattus norvegicus [13]): 2.8 mg/kg | Emax (Rattus norvegicus [13]): 117% | Emax at 30 mg/kg (Rattus norvegicus [21]): 27%

C[C@]12CC(C(F)(F)F)=NN1C(N)=N/C2=N\c1ccc(C#N)c(C(F)(F)F)c1
Emax (Rattus norvegicus [1]; [29]): 31% | ED50 (Rattus norvegicus [1]; [31]): > 30 mg/kg | Emax (Rattus norvegicus [7]; [30]): 91% | ED50 (Rattus norvegicus [7]; [32]): 2.8 mg/kg | Activity (Rattus norvegicus [22]): 26%

C[C@@]12CC(C(F)(F)F)=NN1C(=O)N(c1ccc(C#N)c(C(F)(F)F)c1)C2=O
ED50 (Rattus norvegicus [7]): 2.9 mg/day | Emax (Rattus norvegicus [7]; [30]): 75% | Emax at 3 mg/kg (Rattus norvegicus [20]): 11%

O=c1cc(C(F)(F)F)c2cc(N(CC(F)(F)F)CC(F)(F)F)ccc2[nH]1
Emax at 3 mg/kg (Rattus norvegicus [23]): 100% | Emax (Rattus norvegicus [7]; [30]): 150% | Emax at 100 mg/kg (Rattus norvegicus [18]): 100%

C=C[C@@](O)(c1nc2cc(Cl)c(Cl)cc2[nH]1)C(F)(F)F
Emax (Rattus norvegicus [7]; [30]): 101% | ED50 (Rattus norvegicus [7]; [32]): 0.8 mg/kg | Activity (Rattus norvegicus [22]): 46% | Activity (Rattus norvegicus [24]): 20% | Emax at 3 mg/kg (Rattus norvegicus [20]): 21% | Ki (Androgen receptor): 1.1 nM

CN(C)C1CC(C(C)(C)CO)Nc2ccc([N+](=O)[O-])cc21 (configuration not stated)
Emax (Rattus norvegicus [25]): 115% | Emax at 30 mg/kg (Rattus norvegicus [21]): 80%

C[C@](O)(COc1ccc(Cl)c(F)c1)C(=O)Nc1ccc(C#N)c(C(F)(F)F)c1
Activity (Rattus norvegicus [26]): 79.4% | Activity (Rattus norvegicus [27]): 94% | ED50 (Rattus norvegicus [1]): 0.43 mg/day | Emax (Rattus norvegicus [1]; [29]): 138% | ED50 (Rattus norvegicus [2]): 0.41 mg/day | Emax (Rattus norvegicus [2]): 144% | clearance [3]: 0.87 mL/min/kg | Vd [4]: 0.66 L/kg | half-life [5]: 714 min | bioavailability [6]: 96% | Emax (Rattus norvegicus [7]; [30]): 139%

C[C@](O)(CS(=O)(=O)c1ccc(F)cc1)C(=O)Nc1ccc(C#N)c(C(F)(F)F)c1 [(R)-BICALUTAMIDE]
half-life [28]: 5.83 days

CC(=O)Nc1ccc(SC[C@](C)(O)C(=O)Nc2ccc(C#N)c(C(F)(F)F)c2)cc1 [ACETOTHIOLUTAMIDE]
Activity (Rattus norvegicus [1]): 20% | Activity (Rattus norvegicus [2]): 50%

C[C@@H]1CC[C@H]([C@@H](O)C(F)(F)F)N1c1ccc2[nH]c(=O)cc(C(F)(F)F)c2c1 [LGD-2941]
Emax (Rattus norvegicus [14]): 180% | Emax at 10 mg/kg (Rattus norvegicus [15]): 100%

C[C@]12CCC(=O)C[C@@H]1CC[C@@H]1[C@@H]2CC[C@]2(C)[C@@H](O)CC[C@@H]12 [STANOLONE]
Activity (Rattus norvegicus [10]): 50% | Activity (Rattus norvegicus [11]): 200% | Activity (Rattus norvegicus [12]): 138 kN/m2

CCC(=O)O[C@H]1CC[C@H]2[C@@H]3CCC4=CC(=O)CC[C@]4(C)[C@H]3CC[C@]12C [TESTOSTERONE PROPIONATE]
ED50 (Rattus norvegicus [1]): 0.13 mg/day | Emax (Rattus norvegicus [1]; [29]): 120% | ED50 (Rattus norvegicus [2]): 0.12 mg/day | Emax (Rattus norvegicus [2]): 70% | Emax (Rattus norvegicus [7]; [30]): 104%

C[C@]12CC[C@H]3[C@@H](CCC4=CC(=O)CC[C@@]43C)[C@@H]1CC[C@@H]2O [TESTOSTERONE]
ED50 (Rattus norvegicus [1]): 0.13 mg/day | Emax (Rattus norvegicus [1]; [29]): 120% | ED50 (Rattus norvegicus [7]): 0.15 mg/day | Emax (Rattus norvegicus [7]; [30]): 104%
